Assay results reported in ChEMBL document CHEMBL4806959, “Antagonistic peptides for frizzled-1 and frizzled-2” (2015).
Active and inactive are the calls of the source. No cut-off for these calls is given here. Residues, ends and D or L forms follow the SMILES beside them.

How the values were obtained:
[1] = target: Frizzled-1 (Homo sapiens) (UniProt Q9UP38); test: Antagonist activity at Wnt3a-stimulaed human frizzled-1 expressed in human HEK293superTOP flash cells incubated for 24 hrs by luciferase reporter gene assay; type: functional, cell-based; conditions: HEK293, filed as antagonist
Sequence of Frizzled-1 (Homo sapiens) (Q9UP38 70-647 limits assumed): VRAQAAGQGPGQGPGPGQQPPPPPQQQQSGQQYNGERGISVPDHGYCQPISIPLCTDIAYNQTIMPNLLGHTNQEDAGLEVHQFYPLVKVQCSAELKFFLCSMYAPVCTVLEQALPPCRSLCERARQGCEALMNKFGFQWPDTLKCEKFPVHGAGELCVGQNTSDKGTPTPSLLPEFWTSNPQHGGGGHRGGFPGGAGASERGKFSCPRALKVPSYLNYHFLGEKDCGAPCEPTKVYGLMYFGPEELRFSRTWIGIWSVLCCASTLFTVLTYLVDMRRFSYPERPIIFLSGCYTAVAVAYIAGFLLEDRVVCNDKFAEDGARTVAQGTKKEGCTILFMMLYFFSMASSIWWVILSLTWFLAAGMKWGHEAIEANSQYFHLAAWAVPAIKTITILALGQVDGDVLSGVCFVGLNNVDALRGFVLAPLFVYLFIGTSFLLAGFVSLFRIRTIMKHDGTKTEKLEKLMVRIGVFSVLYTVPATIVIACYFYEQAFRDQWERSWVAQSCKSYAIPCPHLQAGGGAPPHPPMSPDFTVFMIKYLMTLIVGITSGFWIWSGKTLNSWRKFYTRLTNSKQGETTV

Frizzled-2 [2] = target: T1, Frizzled-2 (Homo sapiens, UniProt Q14332); test: Antagonist activity at Wnt3a-stimulated frizzled-2 (unknown origin) expressed in human HEK293superTOP flash cells incubated for 24 hrs by luciferase reporter gene assay; type: functional, cell-based; conditions: HEK293, filed as antagonist
T1 sequence (Q14332 24-565 limits assumed): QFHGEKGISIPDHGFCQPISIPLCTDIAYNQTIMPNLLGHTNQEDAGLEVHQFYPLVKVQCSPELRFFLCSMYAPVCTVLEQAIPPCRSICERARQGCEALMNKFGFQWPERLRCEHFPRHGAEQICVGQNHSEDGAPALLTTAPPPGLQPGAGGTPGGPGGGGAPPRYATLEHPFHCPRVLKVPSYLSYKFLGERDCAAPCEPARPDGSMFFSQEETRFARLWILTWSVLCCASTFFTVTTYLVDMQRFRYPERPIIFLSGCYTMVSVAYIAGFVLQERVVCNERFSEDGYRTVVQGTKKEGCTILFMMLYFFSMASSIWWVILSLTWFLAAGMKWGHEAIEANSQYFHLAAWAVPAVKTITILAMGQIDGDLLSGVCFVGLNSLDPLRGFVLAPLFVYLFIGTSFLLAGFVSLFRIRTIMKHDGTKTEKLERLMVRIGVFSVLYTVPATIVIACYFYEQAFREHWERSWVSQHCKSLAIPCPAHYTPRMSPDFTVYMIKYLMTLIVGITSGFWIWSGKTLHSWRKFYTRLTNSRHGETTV

Mus musculus [3] = test: Cardioprotective activity against myocardial infarction Swiss mouse model assessed as LVAd at 6 ug/kg/day, sc via osmotic pumps for 5 weeks by echocardiographic analysis (reference value: 0.5 +/-0.01 cm2); type: functional; conditions: dose 6 µg/kg/day
Mus musculus [4] = test: Cardioprotective activity against myocardial infarction Swiss mouse model assessed as LVAs at 6 ug/kg/day, sc via osmotic pumps for 5 weeks by echocardiographic analysis (reference value: 0.44 +/-0.01 cm2); type: functional; conditions: dose 6 µg/kg/day
Frizzled-2 [5] = target: T1, Frizzled-2; test: Antagonist activity at Wnt3a-stimulaed human frizzled-2 expressed in human HEK293superTOP flash cells incubated for 24 hrs by luciferase reporter gene assay; type: functional, cell-based; conditions: HEK293, filed as antagonist
[6] = target: T2, Frizzled-4 (Homo sapiens) (UniProt Q9ULV1); test: Antagonist activity at Wnt3a-stimulaed frizzled-4 (unknown origin) expressed in human HEK293superTOP flash cells incubated for 24 hrs by luciferase reporter gene assay; type: functional, cell-based; conditions: HEK293
T2 sequence (whole entry): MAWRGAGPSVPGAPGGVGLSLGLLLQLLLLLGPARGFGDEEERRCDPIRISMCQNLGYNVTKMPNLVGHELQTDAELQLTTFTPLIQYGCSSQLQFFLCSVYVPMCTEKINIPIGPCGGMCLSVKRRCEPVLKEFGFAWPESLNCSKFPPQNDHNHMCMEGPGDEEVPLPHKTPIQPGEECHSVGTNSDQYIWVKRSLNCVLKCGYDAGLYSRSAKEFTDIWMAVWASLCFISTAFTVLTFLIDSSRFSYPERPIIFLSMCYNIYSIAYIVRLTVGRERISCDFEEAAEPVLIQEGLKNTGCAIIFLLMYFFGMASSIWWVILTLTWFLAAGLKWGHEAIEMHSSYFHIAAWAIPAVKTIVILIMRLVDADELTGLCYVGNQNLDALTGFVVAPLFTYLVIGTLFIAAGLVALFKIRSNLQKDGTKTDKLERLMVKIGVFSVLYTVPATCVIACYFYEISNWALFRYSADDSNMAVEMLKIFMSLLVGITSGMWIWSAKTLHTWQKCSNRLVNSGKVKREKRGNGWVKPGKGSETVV

Mus musculus [7] = test: Cardioprotective activity against myocardial infarction Swiss mouse model assessed as reduction in wet lung weight at 6 ug/kg/day, sc via osmotic pumps for 5 weeks; type: functional, organism-based; conditions: dose 6.0 µg/kg/day
[8] = target: Frizzled-2 (Rattus norvegicus) (UniProt Q08464); test: Agonist activity at rat frizzled-2 expressed in CHO cells by luciferase reporter gene assay; type: cell-based
Sequence of Frizzled-2 (Rattus norvegicus) (Q08464 29-570 limits assumed): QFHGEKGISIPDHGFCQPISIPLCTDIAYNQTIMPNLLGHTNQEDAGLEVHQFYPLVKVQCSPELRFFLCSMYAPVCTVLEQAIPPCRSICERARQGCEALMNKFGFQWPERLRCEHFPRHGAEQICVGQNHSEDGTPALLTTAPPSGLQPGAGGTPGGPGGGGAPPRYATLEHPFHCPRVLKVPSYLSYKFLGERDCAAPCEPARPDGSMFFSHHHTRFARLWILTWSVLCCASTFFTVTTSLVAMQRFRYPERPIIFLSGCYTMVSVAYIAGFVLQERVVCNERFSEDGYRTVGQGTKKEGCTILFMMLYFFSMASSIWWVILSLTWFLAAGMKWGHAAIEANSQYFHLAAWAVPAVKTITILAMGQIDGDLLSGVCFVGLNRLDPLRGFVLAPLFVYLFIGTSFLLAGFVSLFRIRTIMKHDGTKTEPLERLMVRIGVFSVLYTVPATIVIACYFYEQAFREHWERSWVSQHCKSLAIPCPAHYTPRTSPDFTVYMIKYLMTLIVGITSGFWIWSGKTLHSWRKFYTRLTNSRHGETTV

[9] = target: Frizzled-5 (Homo sapiens) (UniProt Q13467); test: Antagonist activity at Wnt3a-stimulaed human frizzled-5 expressed in human HEK293superTOP flash cells at 10 nM incubated for 24 hrs by luciferase reporter gene assay; type: functional, cell-based; conditions: HEK293
Sequence of Frizzled-5 (Homo sapiens) (Q13467 whole entry): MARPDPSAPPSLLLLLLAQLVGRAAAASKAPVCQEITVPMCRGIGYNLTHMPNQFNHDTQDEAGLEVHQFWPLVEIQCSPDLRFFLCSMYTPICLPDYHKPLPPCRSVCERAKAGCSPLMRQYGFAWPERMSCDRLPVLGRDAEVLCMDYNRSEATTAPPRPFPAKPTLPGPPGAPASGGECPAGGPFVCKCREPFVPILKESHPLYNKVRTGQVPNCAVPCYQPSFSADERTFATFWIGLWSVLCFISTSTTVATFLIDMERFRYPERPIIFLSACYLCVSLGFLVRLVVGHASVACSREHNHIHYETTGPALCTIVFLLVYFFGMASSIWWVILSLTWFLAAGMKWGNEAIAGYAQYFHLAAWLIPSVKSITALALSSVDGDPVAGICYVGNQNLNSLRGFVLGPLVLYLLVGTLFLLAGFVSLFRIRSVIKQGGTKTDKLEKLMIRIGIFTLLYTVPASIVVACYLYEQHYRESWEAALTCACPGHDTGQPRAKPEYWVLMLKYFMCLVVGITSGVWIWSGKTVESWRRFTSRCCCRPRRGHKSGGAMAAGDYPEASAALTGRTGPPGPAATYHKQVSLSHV

Mus musculus [10] = test: Cardioprotective activity against myocardial infarction Swiss mouse model assessed as increase in myofibroblast number at 6 ug/kg/day, sc via osmotic pumps for 5 weeks by immunohistochemical staining analysis; type: functional, organism-based; conditions: dose 6.0 µg/kg/day
[11] = target: Frizzled-1 (Rattus norvegicus) (UniProt Q08463); test: Agonist activity at rat frizzled-1 expressed in African green monkey COS7 cells by luciferase reporter gene assay; type: cell-based
Sequence of Frizzled-1 (Rattus norvegicus) (Q08463 whole entry): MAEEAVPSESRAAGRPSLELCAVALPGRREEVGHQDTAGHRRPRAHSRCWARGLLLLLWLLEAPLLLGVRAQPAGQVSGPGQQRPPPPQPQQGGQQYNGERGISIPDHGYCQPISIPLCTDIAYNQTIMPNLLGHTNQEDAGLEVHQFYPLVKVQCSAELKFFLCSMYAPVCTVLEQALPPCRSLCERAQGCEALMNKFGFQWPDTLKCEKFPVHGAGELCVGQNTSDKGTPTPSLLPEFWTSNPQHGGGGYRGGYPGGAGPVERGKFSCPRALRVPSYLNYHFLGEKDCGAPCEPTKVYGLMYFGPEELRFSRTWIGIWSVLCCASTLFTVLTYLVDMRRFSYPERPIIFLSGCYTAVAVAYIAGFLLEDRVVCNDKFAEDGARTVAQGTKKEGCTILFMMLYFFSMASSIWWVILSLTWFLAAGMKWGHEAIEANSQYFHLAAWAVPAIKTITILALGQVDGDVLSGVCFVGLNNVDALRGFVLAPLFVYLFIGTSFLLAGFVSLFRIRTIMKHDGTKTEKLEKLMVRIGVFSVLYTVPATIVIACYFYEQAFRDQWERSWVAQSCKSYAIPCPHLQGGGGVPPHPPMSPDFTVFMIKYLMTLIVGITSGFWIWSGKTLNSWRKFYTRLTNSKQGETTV

[12] = target: Frizzled-2 (Rattus norvegicus) (UniProt Q08464); test: Agonist activity at rat frizzled-2 expressed in African green monkey COS7 cells by luciferase reporter gene assay; type: cell-based
Mus musculus [13] = test: Cardioprotective activity against myocardial infarction Swiss mouse model assessed as ventricular dilation at 6 ug/kg/day, sc via osmotic pumps for 5 weeks by macroscopic analysis; type: functional, organism-based; conditions: dose 6.0 µg/kg/day
Mus musculus [14] = test: Cardioprotective activity against myocardial infarction Swiss mouse model assessed as increase in myofibroblast number at 6 ug/kg/day, sc via osmotic pumps for 2 weeks by immunohistochemical staining analysis relative to control; type: functional; conditions: dose 6 µg/kg/day
Mus musculus [15] = test: Cardioprotective activity against myocardial infarction Swiss mouse model assessed as reduction in infarct area in heart at 6 ug/kg/day, sc via osmotic pumps for 2 to 5 weeks by immunohistochemical staining analysis; type: functional, organism-based; conditions: dose 6.0 µg/kg/day, time 2-5 weeks
Rattus norvegicus = species on record: Rattus norvegicus; test: Selectivity index, ratio of IC50 for Wnt3a-stimulated rat frizzled-1 expressed in human HEK293superTOPFlash cells to IC50 for Wnt3a-stimulated rat frizzled-2 expressed in human HEK293superTOPFlash cells; type: cell-based
Mus musculus [16] = test: Cardioprotective activity against myocardial infarction Swiss mouse model assessed as EDV_L at 6 ug/kg/day, sc via osmotic pumps for 5 weeks by echocardiographic analysis (reference value: 0.214 +/-0.02 cm3); type: functional; conditions: dose 6 µg/kg/day
[17] = target: Frizzled-1 (Rattus norvegicus) (UniProt Q08463); test: Agonist activity at rat frizzled-1 expressed in human HEK293superTOP flash cells by luciferase reporter gene assay; type: cell-based; conditions: HEK293
[18] = target: Frizzled-1 (Rattus norvegicus) (UniProt Q08463); test: Agonist activity at rat frizzled-1 expressed in CHO cells by luciferase reporter gene assay; type: cell-based
Mus musculus [19] = test: Cardioprotective activity against myocardial infarction Swiss mouse model assessed as ratio of maximum positive slope to pressure of positive slope at 6 ug/kg/day, sc via osmotic pumps for 5 weeks by Millar pressure recording based analysis (reference value: 43.78 +/-1.93 1/sec); type: functional; conditions: dose 6 µg/kg/day
Mus musculus [20] = test: Cardioprotective activity against myocardial infarction Swiss mouse model assessed as ratio of maximum negative slope to pressure of negative slope at 6 ug/kg/day, sc via osmotic pumps for 5 weeks by Millar pressure recording based analysis (reference value: 33.29 +/-1.14 1/sec); type: functional; conditions: dose 6 µg/kg/day
Mus musculus [21] = test: Cardioprotective activity against myocardial infarction Swiss mouse model assessed as increase in amount of blood vessels in heart at 6 ug/kg/day, sc via osmotic pumps for 5 weeks by immunohistochemical staining analysis; type: functional, organism-based; conditions: dose 6.0 µg/kg/day
[22] = target: Frizzled-2 (Rattus norvegicus) (UniProt Q08464); test: Agonist activity at rat frizzled-2 expressed in human HEK293superTOP flash cells by luciferase reporter gene assay; type: cell-based; conditions: HEK293
Mus musculus [23] = test: Cardioprotective activity against myocardial infarction Swiss mouse model assessed as reduction in collagen level in infarct area at 6 ug/kg/day, sc via osmotic pumps for 5 weeks by immunohistochemical staining analysis; type: functional, organism-based; conditions: dose 6.0 µg/kg/day
Mus musculus [24] = test: Cardioprotective activity against myocardial infarction Swiss mouse model assessed as increase in alpha-SMA protein expression in heart at 6 ug/kg/day, sc via osmotic pumps for 5 weeks by western blot analysis; type: functional, organism-based; conditions: dose 6.0 µg/kg/day
Mus musculus [25] = test: Cardioprotective activity against myocardial infarction Swiss mouse model assessed as ESV_L at 6 ug/kg/day, sc via osmotic pumps for 5 weeks by echocardiographic analysis (reference value: 0.179 +/-0.007 cm3); type: functional; conditions: dose 6 µg/kg/day
Mus musculus [26] = test: Cardioprotective activity against myocardial infarction Swiss mouse model assessed as increase in ejection fraction at 6 ug/kg/day, sc via osmotic pumps for 5 weeks by echocardiographic analysis relative to control; type: functional; conditions: dose 6 µg/kg/day
[27] = target: Frizzled-5 (Homo sapiens) (UniProt Q13467); test: Antagonist activity at Wnt3a-stimulaed frizzled-5 (unknown origin) expressed in human HEK293superTOP flash cells incubated for 24 hrs by luciferase reporter gene assay; type: functional, cell-based; conditions: HEK293
Mus musculus [28] = test: Cardioprotective activity against myocardial infarction Swiss mouse model assessed as increase in infarct area thickness in heart at 6 ug/kg/day, sc via osmotic pumps for 2 to 5 weeks by immunohistochemical staining analysis; type: functional, organism-based; conditions: dose 6.0 µg/kg/day, time 2-5 weeks
Frizzled-2 [29] = target: T1, Frizzled-2; test: Antagonist activity at frizzled-2 (unknown origin) expressed in human HEK293superTOP flash cells incubated for 24 hrs by luciferase reporter gene assay; type: functional, cell-based; conditions: HEK293
[30] = target: T2, Frizzled-4 (Homo sapiens); test: Antagonist activity at Wnt3a-stimulaed human frizzled-4 expressed in human HEK293superTOP flash cells at 10 nM incubated for 24 hrs by luciferase reporter gene assay; type: functional, cell-based; conditions: HEK293
Mus musculus [31] = test: Cardioprotective activity against myocardial infarction Swiss mouse model assessed as reduction in infarction expansion in heart at 6 ug/kg/day, sc via osmotic pumps for 5 weeks by macroscopic analysis; type: functional, organism-based; conditions: dose 6.0 µg/kg/day
Mus musculus [32] = test: Cardioprotective activity against myocardial infarction Swiss mouse model assessed as increase in alpha-SMA gene expression in heart at 6 ug/kg/day, sc via osmotic pumps for 5 weeks by qPCR analysis; type: functional, organism-based; conditions: dose 6.0 µg/kg/day
[33] = target: Frizzled-2 (Mus musculus) (UniProt Q9JIP6); test: Antagonist activity at Wnt3a-stimulaed mouse frizzled-2 expressed in human HEK293superTOP flash cells incubated for 24 hrs by luciferase reporter gene assay; type: cell-based; conditions: HEK293, filed as antagonist
Sequence of Frizzled-2 (Mus musculus) (Q9JIP6 whole entry, looked up): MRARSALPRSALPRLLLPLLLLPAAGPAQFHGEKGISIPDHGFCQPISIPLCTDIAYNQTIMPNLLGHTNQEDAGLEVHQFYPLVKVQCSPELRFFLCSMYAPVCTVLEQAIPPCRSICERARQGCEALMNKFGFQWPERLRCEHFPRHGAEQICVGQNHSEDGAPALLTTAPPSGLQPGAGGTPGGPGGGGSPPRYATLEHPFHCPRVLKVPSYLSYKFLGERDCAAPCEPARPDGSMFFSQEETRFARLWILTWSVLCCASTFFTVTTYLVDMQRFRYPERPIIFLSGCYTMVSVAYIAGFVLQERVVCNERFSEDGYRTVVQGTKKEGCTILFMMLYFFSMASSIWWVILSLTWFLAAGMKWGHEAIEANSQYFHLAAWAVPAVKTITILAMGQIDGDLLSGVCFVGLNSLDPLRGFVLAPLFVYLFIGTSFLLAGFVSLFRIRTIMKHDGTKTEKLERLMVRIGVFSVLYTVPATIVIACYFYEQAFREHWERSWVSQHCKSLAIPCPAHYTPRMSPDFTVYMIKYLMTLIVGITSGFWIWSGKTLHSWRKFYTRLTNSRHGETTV

Mus musculus [34] = test: Cardioprotective activity against myocardial infarction Swiss mouse model assessed as SV_L at 6 ug/kg/day, sc via osmotic pumps for 5 weeks by echocardiographic analysis (reference value: 0.035 +/-0.005 cm3); type: functional; conditions: dose 6 µg/kg/day
[35] = target: Frizzled-1 (Mus musculus) (UniProt O70421); test: Antagonist activity at Wnt3a-stimulaed mouse frizzled-1 expressed in human HEK293superTOP flash cells incubated for 24 hrs by luciferase reporter gene assay; type: cell-based; conditions: HEK293, filed as antagonist
Sequence of Frizzled-1 (Mus musculus) (O70421 whole entry, looked up): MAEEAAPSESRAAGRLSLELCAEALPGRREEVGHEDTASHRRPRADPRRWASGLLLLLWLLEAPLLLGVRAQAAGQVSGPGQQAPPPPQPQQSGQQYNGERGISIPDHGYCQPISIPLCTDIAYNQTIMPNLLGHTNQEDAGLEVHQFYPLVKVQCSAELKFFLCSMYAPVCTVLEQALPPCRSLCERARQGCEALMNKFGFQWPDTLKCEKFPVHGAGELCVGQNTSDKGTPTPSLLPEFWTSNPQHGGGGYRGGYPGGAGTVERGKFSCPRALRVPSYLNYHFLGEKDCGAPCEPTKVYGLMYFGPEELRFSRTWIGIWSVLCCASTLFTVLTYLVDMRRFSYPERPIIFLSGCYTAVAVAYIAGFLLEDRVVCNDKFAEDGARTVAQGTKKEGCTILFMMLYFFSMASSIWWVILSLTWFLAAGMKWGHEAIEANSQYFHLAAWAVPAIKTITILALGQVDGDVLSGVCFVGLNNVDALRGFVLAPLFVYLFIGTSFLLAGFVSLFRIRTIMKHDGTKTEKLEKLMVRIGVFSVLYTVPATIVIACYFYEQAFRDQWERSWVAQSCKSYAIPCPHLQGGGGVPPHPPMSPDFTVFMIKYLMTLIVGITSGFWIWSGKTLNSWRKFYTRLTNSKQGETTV

Mus musculus [36] = test: Cardioprotective activity against myocardial infarction Swiss mouse model assessed as animal mortality at 6 ug/kg/day, sc via osmotic pumps for 5 weeks (reference value: 35%); type: functional; conditions: 840 h, at 6 µg/kg/day

CSCC[C@H](NC(=O)CNC(=O)[C@H](CCC(=O)O)NC(=O)[C@H](CO)NC(=O)[C@@H](NC(=O)[C@H](CCCCN)NC(=O)[C@H](CC(N)=O)NC(=O)[C@H](CS)NC(C)=O)[C@@H](C)O)C(=O)N[C@@H](CC(=O)O)C(=O)NCC(=O)N[C@@H](CS)C(=O)N[C@@H](CCC(=O)O)C(=O)N[C@@H](CC(C)C)C(N)=O (Ac-CNKTSEGMDGCEL-NH2)
inhibition [1]: Active
inhibition (Frizzled-2 [2]): Dose-Dependent Effect
Activity (Mus musculus [3]): 0.38 cm2
Activity (Mus musculus [4]): 0.3 cm2
inhibition (Frizzled-2 [5]): Active
inhibition [6]: inactive
Activity (Mus musculus [7]): Active
Activity [8]: inactive
inhibition [9]: inactive
Activity (Mus musculus [10]): Active
Activity [11]: inactive
Activity [12]: inactive
Activity (Mus musculus [13]): Active
fold change (FC) (Mus musculus [14]): >4
Activity (Mus musculus [15]): Active
Ratio IC50 (Rattus norvegicus): 100
Activity (Mus musculus [16]): 0.132 cm3
Activity [17]: inactive
Activity [18]: inactive
Activity (Mus musculus [19]): 69.13 s⁻¹
Activity (Mus musculus [20]): 32.84 s⁻¹
Activity (Mus musculus [21]): Active
Activity [22]: inactive
Activity (Mus musculus [23]): Active
Activity (Mus musculus [24]): Active
Activity (Mus musculus [25]): 0.09 cm3
fold change (FC) (Mus musculus [26]): 2
inhibition [27]: inactive
Activity (Mus musculus [28]): Active
inhibition (Frizzled-2 [29]): inactive
inhibition [30]: inactive
Activity (Mus musculus [31]): Active
Activity (Mus musculus [32]): Active
inhibition [33]: Active
Activity (Mus musculus [34]): 0.041 cm3
inhibition [35]: Active
mortality at 0.006 mg/kg/day (Mus musculus [36]): 0%
